# Source: publication PMC7948405, “Small-molecule control of neurotransmitter sulfonation” (The Journal of Biological Chemistry, 2020)
# Columns and labels:
# [1] = molecular target: T1, SULT1A3 in HME(+) cells (Homo sapiens, UniProt P0DMM9); experiment: Ex vivo inhibition of dopamine sulfate (DPS) synthesis in SULT1A3-transfected HME(+) cells; type: cell-based; conditions: 100 μM DP, 24 h, parentheses 1 SD
# T1 construct: HME cells were transfected with plasmid containing the coding region of either SULT1A3 or a negative control; expressed in transfected cells
# T1 sequence (P0DMM9 whole entry): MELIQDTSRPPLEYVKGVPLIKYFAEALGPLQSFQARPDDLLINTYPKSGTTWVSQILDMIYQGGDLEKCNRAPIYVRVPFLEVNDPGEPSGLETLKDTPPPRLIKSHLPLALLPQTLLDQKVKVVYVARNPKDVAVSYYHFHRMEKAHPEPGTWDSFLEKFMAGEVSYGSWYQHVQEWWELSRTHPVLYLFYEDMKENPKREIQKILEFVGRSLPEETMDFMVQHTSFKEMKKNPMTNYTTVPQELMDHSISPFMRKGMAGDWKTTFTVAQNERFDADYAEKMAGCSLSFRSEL
# Procedure: A stable transfectant cell line was constructed to test the ability of CMP12 and CMP13 to suppress catecholamine sulfonation in cultured human cells. […] HME cells were transfected with plasmid containing the coding region of either SULT1A3 or a negative control ([14]) (see Experiment and Transfection protocol). Transfectant isolates were grown to near confluence and harvested, and cell extracts were prepared (see Experiment). SULT1A3 levels in the extracts were assessed by determining SULT activity per μg extract (see Experiment). Activity in extracts of the SULT1A3-positive transfectants ranged from 1 to 85 times the levels present in negative-control extracts. […] Consequently, a transfectant, 1A3(+) with extract activity 42 times that of the negative-control isolate, 1A3(-), was selected for further experiments.
# To establish conditions for ex vivo inhibition studies, the DP concentration and time dependence of dopamine sulfate (DPS) synthesis by 1A3(+) cells were assessed. DP and its metabolites (DPS, 3-methoxytyramine [3-MT], 3,4-dihydroxyphenylacetic acid [DOPAC], and homovanillic acid [HVA]) are baseline separable using HPLC and can be quantitated optically at […] (see Experiment and Fig. S1). Only DP and DPS were detected in the cell media, and together, they constituted >95% of the DP initially added to the media. The DPS concentration in the 1A3(+) media at 24 h after DP addition is plotted as a function of DP concentration in Fig. 6B. As is evident, the dose-response curve is linear at concentrations as high as 200 μM DP.
# Figure 6 HME(+)-cell DPS synthesis and inhibition. A, Time dependence of DPS formation. DP was added at 100 μM to the growth medium of 60 to 70% confluent HME(+)-cells, and the DPS concentration in the medium was determined at the indicated time intervals. B, DP-concentration dependence of DPS synthesis. The Y-axis indicates the concentration of DPS in the growth media 24 h after DP addition. The X-axis indicates the DP concentration added at t = 0 to the growth medium of 60 to 70% confluent HME(+)-cells. […] The levels of DP (red dots) and DPS (blue dots) were determined 24 h after DP addition. […] A–D, dopamine metabolites were separated and quantitated using HPLC (see Experiment); each data point represents the average of three independent determinations, and the sum of DP and DPS concentrations was ≥95% of the total added DP. […]
# Transfectants are grown to 60 to 70% confluency at 37 °C in 12-well plates in the MEM containing neomycin (400 μg ml^−1). […] DP metabolite peaks are baseline separated and detected optically at 280 nm (see Fig. S1). Standard curves were used to quantitate each metabolite (Ɛ280 = 3.2 and 2.8 mM^-1 cm^-1 for DP and DPS, respectively). DPS was detected only in the media of cells that express SULT1A3. […]
# [2] = molecular target: T2, SULT1A3 (Homo sapiens, UniProt P0DMM9); experiment: Equilibrium binding of CMP13 to SULT1A3 complexes (intrinsic fluorescence)
# T2 construct: E. coli–optimized SULT coding regions were inserted into a pGEX-6P expression vector; N-His/GST/MBP triple tag (PreScission-cleavable) (N, cleaved yes); made in house; host or cells: E. coli BL21(DE3)
# T2 sequence (P0DMM9 whole entry): as above
# Text: Figure 4 The inhibition mechanism. A, equilibrium binding. Binding was monitored via ligand-induced changes in SULT1A3 intrinsic fluorescence (λex = 290 nm, λem = 335 nm). […] Each dot represents the average of three independent titrations. Lines passing through the data represent the outcomes predicted by least-squares fitting of the averaged data to a single-binding-site model. B, representative PAP-binding reaction. PAP binding was monitored using a stopped-flow fluorimeter (λex = 290 nm, λem ≥ 330 nm (cutoff filter)). Reactions were initiated by rapidly mixing (1:1 v/v) a solution containing SULT1A3 (30 nM, dimer), CMP13 (1.0 μM, 100 × Kd), Tam (160 μM, 200 × Kd), KPO4 (50 mM), pH 7.5, 25(±2) °C, with a solution that was identical except that it lacked SULT1A3 and contained PAP (2.0 μM). The average of five independent progress curves shown and the kobs was obtained by fitting the data to a single exponential. C, pre–steady-state binding. PAP binding was monitored as described for panel B. Reactions were initiated by mixing (1:1 v/v) a solution containing SULT1A3 (30 nM, dimer), CMP13 [0 μM (black dots) or 1.0 μM, 100 × Kd (red and blue dots)], Tam [0 μM (black and blue dots) or 160 μM, 200 × Kd (red dots)], KPO4 (50 mM), pH 7.5, 25(±2) °C, with a solution that was identical except that it lacked SULT1A3 and contained PAP at twice the indicated concentrations. Each kobs value was determined in triplicate, and the averaged values are shown. kon and koff are given, respectively, by the slopes and intercepts obtained from linear least-squares fitting of the kobs vs [PAP] plot. PAP, 3′-phosphoadenosine-5′-phosphate; SULT1A3, sulfotransferase 1A3; Tam, 4-hydroxy-tamoxifen.
# CMP13 binding to SULT1A3 was monitored via binding-induced changes in SULT1A3 intrinsic fluorescence (λex= 290 nm, λem= 335 nm ([17])). […] PAP binding was determined using the same protocol except that [PAP] was varied and CMP13 was 1.0 μM (100 × Ki). Titrations were performed in triplicate. Data were averaged and least-squares fit using a model that assumes a single binding site per monomer.
% Inhibition at saturation [1],IC50 [1] [nM],"Kd ([2]; complex E (unliganded, cap-open)) [nM]","Kd ([2]; complex E·PAP (cap-closed), PAP 350 μM) [nM]","Kd ([2]; complex E·PAP·Tam (cap held open), PAP 350 μM, Tam 160 μM) [nM]",fold tighter binding to cap-closed E·PAP than to open form E ([2]; ratio of Kd values) [fold],SMILES
84 (3) %,260,–,–,–,–,CC(C)Cc1ccc2cc(CCC(N)=O)ccc2n1 [CMP12]
95 (2) %,12,130,11,133,12,CC(C)Cc1ccc2cc(/C=C/C(N)=O)cnc2n1 [CMP13]
